From US10300071B2, “Compositions and methods for inhibition of mycobacteria” (priority 2014, dated 2019)
In brackets after ≈: the same amount, converted by molar mass. Read-outs that look alike come from different tables or passages of the source.

Columns and labels:
[1] = target: Mtb AccD6 (Mycobacterium tuberculosis, UniProt P9WQH5); assay: biochemical; type: biochemical; details: for IC50: 300 μM malonyl-CoA, inhibitor 10 μM to 2000 μM; for inhibition at 20 µM: read-out: inhibition at 20 uM
[2] = system: Mtb strain mc^2-7000; assay: microbe, parasite or virus in culture; type: cell-based, Mycobacterium tuberculosis; details: 6 days incubation at 37° C., resazurin, read on the 7th day
[3] = system: S. cerevisiae
[4] = system: human fibroblast
[5] = Mycobacterium tuberculosis, 144 h, read-out: MIC

Chain of Mtb AccD6 (P9WQH5 whole entry, looked up): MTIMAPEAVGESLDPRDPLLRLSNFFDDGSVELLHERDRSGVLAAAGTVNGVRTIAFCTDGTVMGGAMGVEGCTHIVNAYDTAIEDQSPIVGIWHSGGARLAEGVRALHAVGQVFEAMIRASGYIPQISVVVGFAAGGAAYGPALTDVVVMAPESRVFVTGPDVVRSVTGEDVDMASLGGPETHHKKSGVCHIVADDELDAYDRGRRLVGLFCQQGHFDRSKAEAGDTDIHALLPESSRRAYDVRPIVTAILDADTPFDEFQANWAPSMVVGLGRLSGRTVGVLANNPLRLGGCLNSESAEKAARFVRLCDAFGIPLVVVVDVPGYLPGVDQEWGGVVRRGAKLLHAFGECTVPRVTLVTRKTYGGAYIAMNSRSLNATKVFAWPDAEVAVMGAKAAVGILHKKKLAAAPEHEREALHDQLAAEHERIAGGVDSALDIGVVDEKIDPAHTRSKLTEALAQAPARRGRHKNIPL

O=C(O)Cc1ccc(Oc2cnc3cc(Cl)ccc3n2)cc1 [NZ-298, 2-{4-[(6-chloroquinoxalin-2-yl)oxy]phenyl}acetic acid]
IC50 ([1]; read-out: IC50): 280 nM | MIC [2, 5]: 25 µM (≈ 7.87 µg/mL) | concentrations at which not toxic, s. cerevisiae cytotoxicity [3]: ≥ 100 µM | concentrations at which not toxic, human fibroblast cytotoxicity [4]: ≥ 100 µM

CNC(=O)C(C)c1ccc(Oc2nc3cc(F)c(F)cc3s2)cc1 (stereo not shown) [NZ-387, 2-{4-[(5,6-difluoro-1,3-benzothiazol-2-yl)oxy]phenyl}-N-methylpropanamide]
IC50 ([1]; read-out: IC50): 260 nM | MIC [2, 5]: 2.7 to 8 µM (≈ 0.941 to 2.79 µg/mL) | concentrations at which not toxic, s. cerevisiae cytotoxicity [3]: ≥ 100 µM | concentrations at which not toxic, human fibroblast cytotoxicity [4]: ≥ 100 µM

CCOC(=O)c1ccc2nc(Oc3ccc(NC(=O)NC(C)C)cc3)sc2c1 [NZ-378, ethyl 2-(4-{[(propan-2-yl)carbamoyl]amino}phenoxy)-1,3-benzothiazole-6-carboxylate]
IC50 [1]: Not Active | MIC [2, 5]: 2.2 µM (≈ 0.879 µg/mL) | concentrations at which not toxic, s. cerevisiae cytotoxicity [3]: ≥ 100 µM | concentrations at which not toxic, human fibroblast cytotoxicity [4]: ≥ 100 µM

CC(C)NC(=O)COc1ccc(Oc2cnc3cc(Cl)ccc3n2)cc1 [NZ-307, 2-{4-[(6-chloroquinoxalin-2-yl)oxy]phenoxy}-N-(propan-2-yl)acetamide]
IC50 ([1]; read-out: IC50): 2500 nM | MIC [2, 5]: 3 µM (≈ 1.12 µg/mL) | concentrations at which not toxic, s. cerevisiae cytotoxicity [3]: ≥ 100 µM | concentrations at which not toxic, human fibroblast cytotoxicity [4]: ≥ 100 µM

CNC(=O)Cc1ccc(Oc2cnc3cc(Cl)ccc3n2)cc1O [NZ-402, 2-{4-[(6-chloroquinoxalin-2-yl)oxy]-2-hydroxyphenyl}-N-methylacetamide]
IC50 ([1]; read-out: IC50): 210 nM | MIC [2, 5]: 2.16 µM (≈ 0.743 µg/mL) | concentrations at which not toxic, s. cerevisiae cytotoxicity [3]: ≥ 100 µM | concentrations at which not toxic, human fibroblast cytotoxicity [4]: ≥ 100 µM

CON(C)C(=O)COc1ccc(Oc2cnc3cc(Cl)ccc3n2)cc1 [NZ-290, 2-{4-[(6-chloroquinoxalin-2-yl)oxy]phenoxy}-N-methoxy-N-methylacetamide]
IC50 ([1]; read-out: IC50): 2500 nM | MIC [2, 5]: 1.5 µM (≈ 0.561 µg/mL) | concentrations at which not toxic, s. cerevisiae cytotoxicity [3]: ≥ 100 µM | concentrations at which not toxic, human fibroblast cytotoxicity [4]: ≥ 100 µM

CNC(=O)Cc1ccc(Oc2nc3cc(F)c(F)cc3s2)cc1O [NZ-401, 2-{4-[(5,6-difluoro-1,3-benzothiazol-2-yl)oxy]-2-hydroxyphenyl}-N-methylacetamide]
IC50 ([1]; read-out: IC50): 120 nM | MIC [2, 5]: 0.54 µM (≈ 0.189 µg/mL) | concentrations at which not toxic, s. cerevisiae cytotoxicity [3]: ≥ 100 µM | concentrations at which not toxic, human fibroblast cytotoxicity [4]: ≥ 100 µM

CONC(=O)[C@@H](C)Oc1ccc(Oc2cnc3cc(Cl)ccc3n2)cc1 [NZ-295, (2R)-2-{4-[(6-chloroquinoxalin-2-yl)oxy]phenoxy}-N-methoxypropanamide]
IC50 ([1]; read-out: IC50): 930 nM | MIC [2, 5]: 4.5 µM (≈ 1.68 µg/mL) | concentrations at which not toxic, s. cerevisiae cytotoxicity [3]: ≥ 100 µM | concentrations at which not toxic, human fibroblast cytotoxicity [4]: ≥ 100 µM

O=C(O)Cc1ccc(Oc2nc3cc(F)c(F)cc3s2)cc1 [NZ-399, 2-{4-[(5,6-difluoro-1,3-benzothiazol-2-yl)oxy]phenyl}acetic acid]
IC50 ([1]; read-out: IC50): 180 nM | MIC [2, 5]: 1.36 µM (≈ 0.437 µg/mL) | concentrations at which not toxic, s. cerevisiae cytotoxicity [3]: ≥ 100 µM | concentrations at which not toxic, human fibroblast cytotoxicity [4]: ≥ 100 µM

CC(C(=O)O)c1ccc(Oc2nc3ccc(Cl)cc3s2)cc1 (stereo not shown) [NZ-312, 2-{4-[(6-chloro-1,3-benzothiazol-2-yl)oxy]phenyl}propanoic acid]
IC50 ([1]; read-out: IC50): 260 nM | MIC [2, 5]: 6 µM (≈ 2 µg/mL) | concentrations at which not toxic, s. cerevisiae cytotoxicity [3]: ≥ 100 µM | concentrations at which not toxic, human fibroblast cytotoxicity [4]: ≥ 100 µM

CC(C)(C)OC(=O)Nc1ccc(Oc2cnc3cc(Cl)ccc3n2)cc1 [NZ-321, tert-butyl N-{4-[(6-chloroquinoxalin-2-yl)oxy]phenyl}carbamate]
IC50 ([1]; read-out: IC50): 20000 nM | MIC [2, 5]: 50 µM (≈ 18.6 µg/mL) | concentrations at which not toxic, s. cerevisiae cytotoxicity [3]: ≥ 100 µM | concentrations at which not toxic, human fibroblast cytotoxicity [4]: ≥ 100 µM

CNC(=O)Cc1ccc(Oc2nc3ccc(Cl)cc3s2)cc1 [NZ-383, 2-{4-[(6-chloro-1,3-benzothiazol-2-yl)oxy]phenyl}-N-methylacetamide]
IC50 ([1]; read-out: IC50): 800 to 1170 nM | MIC [2, 5]: 3.9 µM (≈ 1.3 µg/mL) | concentrations at which not toxic, s. cerevisiae cytotoxicity [3]: ≥ 100 µM | concentrations at which not toxic, human fibroblast cytotoxicity [4]: ≥ 100 µM

COc1ccc2nc(Oc3ccc(NC(=O)NC(C)C)cc3)sc2c1 [NZ-361, 1-{4-[(6-methoxy-1,3-benzothiazol-2-yl)oxy]phenyl}-3-(propan-2-yl)urea]
inhibition at 20 µM [1]: 19% | MIC [2, 5]: 3.2 µM (≈ 1.14 µg/mL) | concentrations at which not toxic, s. cerevisiae cytotoxicity [3]: ≥ 100 µM | concentrations at which not toxic, human fibroblast cytotoxicity [4]: ≥ 100 µM

CCNC(=O)COc1ccc(Oc2cnc3cc(Cl)ccc3n2)cc1 [NZ-306, 2-{4-[(6-chloroquinoxalin-2-yl)oxy]phenoxy}-N-ethylacetamide]
IC50 ([1]; read-out: IC50): 4600 nM | MIC [2, 5]: 25 µM (≈ 8.94 µg/mL) | concentrations at which not toxic, s. cerevisiae cytotoxicity [3]: ≥ 100 µM | concentrations at which not toxic, human fibroblast cytotoxicity [4]: ≥ 100 µM

CC(C)NC(=O)N(C)c1ccc(Oc2nc3ccc(Cl)cc3s2)cc1 [NZ-388, 1-{4-[(6-chloro-1,3-benzothiazol-2-yl)oxy]phenyl}-1-methyl-3-(propan-2-yl)urea]
IC50 ([1]; read-out: IC50): 3000 nM | MIC [2, 5]: 2.1 µM (≈ 0.789 µg/mL) | concentrations at which not toxic, s. cerevisiae cytotoxicity [3]: ≥ 100 µM | concentrations at which not toxic, human fibroblast cytotoxicity [4]: ≥ 100 µM

CONC(=O)COc1ccc(Oc2cnc3cc(Cl)ccc3n2)cc1 [NZ-274, 2-{4-[(6-chloroquinoxalin-2-yl)oxy]phenoxy}-N-methoxyacetamide]
IC50 ([1]; read-out: IC50): 3700 nM | MIC [2, 5]: 0.173 µM (≈ 0.0622 µg/mL) | concentrations at which not toxic, s. cerevisiae cytotoxicity [3]: ≥ 100 µM | concentrations at which not toxic, human fibroblast cytotoxicity [4]: ≥ 100 µM

COC(=O)C(C)c1ccc(Oc2nc3ccc(F)cc3s2)cc1 (stereo not shown) [NZ-328, methyl 2-{4-[(6-fluoro-1,3-benzothiazol-2-yl)oxy]phenyl}propanoate]
IC50 ([1]; read-out: IC50): 10000 nM | MIC [2, 5]: 12 µM (≈ 3.98 µg/mL) | concentrations at which not toxic, s. cerevisiae cytotoxicity [3]: ≥ 100 µM | concentrations at which not toxic, human fibroblast cytotoxicity [4]: ≥ 100 µM

COC(=O)Cc1ccc(Oc2nc3ccc(F)cc3s2)cc1 [NZ-294, methyl 2-{4-[(6-fluoro-1,3-benzothiazol-2-yl)oxy]phenyl}acetate]
IC50 ([1]; read-out: IC50): 12500 nM | MIC [2, 5]: 3 µM | concentrations at which not toxic, s. cerevisiae cytotoxicity [3]: ≥ 100 µM | concentrations at which not toxic, human fibroblast cytotoxicity [4]: ≥ 100 µM

CC(C)(Oc1ccc(Oc2cnc3cc(Cl)ccc3n2)cc1)C(=O)O [NZ-315, 2-{4-[(6-chloroquinoxalin-2-yl)oxy]phenoxy}-2-methylpropanoic acid]
IC50 ([1]; read-out: IC50): 1700 nM | MIC [2, 5]: 25 µM (≈ 8.97 µg/mL) | concentrations at which not toxic, s. cerevisiae cytotoxicity [3]: ≥ 100 µM | concentrations at which not toxic, human fibroblast cytotoxicity [4]: ≥ 100 µM

CC(C)NC(=O)Nc1ccc(Oc2nc3ccc(O)cc3s2)cc1 [NZ-362, 1-{4-[(6-hydroxy-1,3-benzothiazol-2-yl)oxy]phenyl}-3-(propan-2-yl)urea]
inhibition at 20 µM [1]: 20% | MIC [2, 5]: 6.5 µM (≈ 2.23 µg/mL) | concentrations at which not toxic, s. cerevisiae cytotoxicity [3]: ≥ 100 µM | concentrations at which not toxic, human fibroblast cytotoxicity [4]: ≥ 100 µM

CNC(=O)Cc1ccc(Oc2nc3ccc(F)cc3s2)cc1 [NZ-385, 2-{4-[(6-fluoro-1,3-benzothiazol-2-yl)oxy]phenyl}-N-methylacetamide]
IC50 ([1]; read-out: IC50): 870 nM | MIC [2, 5]: 3 µM (≈ 0.949 µg/mL) | concentrations at which not toxic, s. cerevisiae cytotoxicity [3]: ≥ 100 µM | concentrations at which not toxic, human fibroblast cytotoxicity [4]: ≥ 100 µM

COC(=O)Cc1ccc(Oc2nc3cc(F)c(F)cc3s2)cc1 [NZ-398, methyl 2-{4-[(5,6-difluoro-1,3-benzothiazol-2-yl)oxy]phenyl}acetate]
IC50 ([1]; read-out: IC50): 3600 nM | MIC [2, 5]: 0.89 µM | concentrations at which not toxic, s. cerevisiae cytotoxicity [3]: ≥ 100 µM | concentrations at which not toxic, human fibroblast cytotoxicity [4]: ≥ 100 µM

CC(C)NC(=O)Nc1ccc(Oc2nc3ccc(CO)cc3s2)cc1 [NZ-381, 1-(4-{[6-(hydroxymethyl)-1,3-benzothiazol-2-yl]oxy}phenyl)-3-(propan-2-yl)urea]
IC50 [1]: Not Active | MIC [2, 5]: 7.3 µM (≈ 2.61 µg/mL) | concentrations at which not toxic, s. cerevisiae cytotoxicity [3]: ≥ 100 µM | concentrations at which not toxic, human fibroblast cytotoxicity [4]: ≥ 100 µM

CC(C(=O)N1CCN(C)CC1)c1ccc(Oc2nc3ccc(Cl)cc3s2)cc1 (stereo not shown) [NZ-366, 2-{4-[(6-chloro-1,3-benzothiazol-2-yl)oxy]phenyl}-1-(4-methylpiperazin-1-yl)propan-1-one]
IC50 ([1]; read-out: IC50): 4900 nM | MIC [2, 5]: 0.56 µM (≈ 0.233 µg/mL) | concentrations at which not toxic, s. cerevisiae cytotoxicity [3]: 25 to 50 µM | concentrations at which not toxic, human fibroblast cytotoxicity [4]: 25 to 50 µM

CC(C(=O)NCCO)c1ccc(Oc2nc3ccc(Cl)cc3s2)cc1 (stereo not shown) [NZ-370, 2-{4-[(6-chloro-1,3-benzothiazol-2-yl)oxy]phenyl}-N-(2-hydroxyethyl)propanamide]
IC50 ([1]; read-out: IC50): 1000 nM | MIC [2, 5]: 1.8 µM (≈ 0.678 µg/mL) | concentrations at which not toxic, s. cerevisiae cytotoxicity [3]: ≥ 100 µM | concentrations at which not toxic, human fibroblast cytotoxicity [4]: ≥ 100 µM

CONC(=O)COc1ccc(Oc2nc3ccc(F)cc3s2)cc1 [NZ-305, 2-{4-[(6-fluoro-1,3-benzothiazol-2-yl)oxy]phenoxy}-N-methoxyacetamide]
inhibition at 15 µM ([1]; 15 uM): 50% | MIC [2, 5]: 3 µM (≈ 1.05 µg/mL) | concentrations at which not toxic, s. cerevisiae cytotoxicity [3]: ≥ 100 µM | concentrations at which not toxic, human fibroblast cytotoxicity [4]: ≥ 100 µM

CC(C)NC(=O)Nc1ccc(Oc2nc3ccc(C(F)(F)F)cc3s2)cc1 [NZ-379, 3-(propan-2-yl)-1-(4-{[6-(trifluoromethyl)-1,3-benzothiazol-2-yl]oxy}phenyl)urea]
IC50 [1]: Not Active | MIC [2]: Not Active | concentrations at which not toxic, s. cerevisiae cytotoxicity [3]: ≥ 100 µM | concentrations at which not toxic, human fibroblast cytotoxicity [4]: ≥ 100 µM

COC(=O)C(C)(C)Oc1ccc(Oc2cnc3cc(Cl)ccc3n2)cc1 [NZ-314, methyl 2-{4-[(6-chloroquinoxalin-2-yl)oxy]phenoxy}-2-methylpropanoate]
IC50 ([1]; read-out: IC50): 17500 nM | MIC [2, 5]: 6 µM (≈ 2.24 µg/mL) | concentrations at which not toxic, s. cerevisiae cytotoxicity [3]: ≥ 100 µM | concentrations at which not toxic, human fibroblast cytotoxicity [4]: ≥ 100 µM
